Source: patent US8168673B2, “Compounds having CRTH2 antagonist activity” (Oxagen Limited, priority 2008, dated 2012)

What was measured:
[1] = target: T1, CRTH2 Receptor (Homo sapiens, UniProt Q9Y5Y4); experiment: Radioligand binding assay, [3H]PGD2 on CHO/CRTH2 cell membranes; settings: summary statement on Table 1
T1 construct: expressed in transfected cells; membranes
T1 sequence (Q9Y5Y4 1-395): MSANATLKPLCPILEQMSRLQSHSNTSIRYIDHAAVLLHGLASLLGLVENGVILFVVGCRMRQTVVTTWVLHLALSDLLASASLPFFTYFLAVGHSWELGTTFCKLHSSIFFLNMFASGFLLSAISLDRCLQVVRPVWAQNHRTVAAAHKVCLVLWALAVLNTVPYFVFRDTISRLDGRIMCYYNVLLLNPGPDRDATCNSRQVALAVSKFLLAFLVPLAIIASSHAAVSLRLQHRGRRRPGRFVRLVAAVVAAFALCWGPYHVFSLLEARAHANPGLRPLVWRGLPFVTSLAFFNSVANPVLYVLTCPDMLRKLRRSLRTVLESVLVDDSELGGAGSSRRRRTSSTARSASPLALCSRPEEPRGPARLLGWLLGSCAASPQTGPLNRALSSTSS

[2] = tested on: PGD2 induced eosinophil shape change; experiment: Human whole blood eosinophil shape change assay; type: cell-based; settings: for IC50: Eosinophil, human whole blood, 10 nM PGD2, read-out: IC50 Values for the Effect of Test Compounds on 10 nM PGD2-induced Eosinophil Shape Change; for activity in whole blood, in words: summary statement on Table 2
Method: Compounds 1 to 9 were assayed for their effect on PGD2 induced eosinophil shape change.
Compounds (1 μl, 200× final concentration) were added directly to 200 μl whole blood, mixed well and incubated for 15 min, 37° C., 5% CO2. After this time, cell shape was fixed by addition of 300 μl Cytofix™ buffer (BD Biosciences), 15 min on ice. 10 ml RBC lysis buffer was added to the fixed cells, incubated 5 min, at room temperature and centrifuged, 300×g for 5 min. Supernatant (containing lysed red cells) was removed and the lysis step was repeated. Leukocytes were resuspended in 250 μl RPMI/10% FCS and shape change analysed by FACS. Eosinophils were gated out based on their autofluorescence and 2000 eosinophil events were counted per sample. Data were analysed in triplicate.

[3] = target: T1, CRTH2 Receptor; experiment: Radioligand binding assay, [3H]PGD2 on CHO/CRTH2 cell membranes; settings: [3H]PGD2 competition
Method: Chinese Hamster Ovary cells were transfected with CRTH2 or DP receptors (CHO/CRTH2 and CHO/DP) and were maintained in culture in a humidified atmosphere at 37° C. (5% CO2) in Minimum Essential Medium (MEM) supplemented with 10% foetal bovine serum, 2 mM glutamine, and 1 mg ml^−1 active G418. The cells were passaged every 2-3 days. For radioligand binding assay, cells were prepared in triple-layer flasks or in 175 cm^2 square flasks (for membrane preparation.
Membranes were prepared either from CHO/CRTH2 and CHO/DP cells, or from platelets (as a source of TP receptors). CHO cells grown to confluency were washed with PBS and detached using a Versene solution (15 ml per flask). When the cells were grown in 175 cm^2 square flask, they were collected by scrapping in PBS. The cell suspensions were centrifuged (1,700 rpm, 10 min, 4° C.) and resuspended in 15 ml of buffer (1×HBSS, supplemented with 10 mM HEPES, pH 7.3). Cell suspensions were then homogenised using an Ultra Turrax at setting 4-6 for 20 s. The homogenate was centrifuged at 1,700 rpm for 10 min and the supernatant was collected and centrifuged at 20,000 rpm for 1 h at 4° C. The resulting pellet was resuspended in buffer and stored at −80° C. in aliquots of 200-500 μl. The protein concentration was determined by the method of Bradford (1976), using bovine serum albumin as standard. The platelets were washed by centrifugation at 600×g for 10 min and resuspended in ice-cold assay buffer (10 mM Tris-HCl, pH 7.4, 5 mM Glucose, 120 mM NaCl, 10 μM indomethacin) and directly centrifuged at 20,000 rpm for 30 min at 4° C. The resulting pellet was treated as described above.
[^3H]PGD2 (160 Ci/mmol) binding experiments were performed on membranes prepared as described above. Assays were performed in a final volume of 100 μl of buffer (1×HBSS/HEPES 10 mM, pH 7.3). Cell membranes (15 μg) were preincubated at room temperature with varying concentration of competing ligand for 15 min. [^3H]PGD2 was then added and the incubation continued for a further one hour at room temperature. The reaction was terminated by the addition of 200 μl ice-cold assay buffer to each well, followed by rapid filtration through Whatman GF/B glass fibre filters using a Unifilter Cell harvester (PerkinElmer Life Sciences) and six washes of 300 μl of ice-cold buffer. The Unifilter plates were dried at room temperature for at least 1 h and the radioactivity retained on the filters was determined on a Beta Trilux counter (PerkinElmer Life Sciences), following addition of 40 μl of Optiphase Hi-Safe 3 (Wallac) liquid scintillation. Non specific binding was defined in the presence of 10 μM unlabelled PGD2. Assays were performed in duplicate.

SMILES | intrinsic activity (CRTH2 antagonist), in words [1] | IC50 [2] | Ki [3] | activity in whole blood, in words [2]
Cc1c(Cc2ccccc2S(=O)(=O)C2CCCCC2)c2cc(F)ccc2n1CC(=O)O [Compound 1, 2-(3-(2-(Cyclohexylsulfonyl)benzyl)-5-fluoro-2-methyl-1H-indol-1-yl)acetic acid] | high intrinsic activity | 6 nM | 0.02 nM | activity is maintained in whole blood
Cc1c(Cc2ccccc2S(=O)(=O)C2CCCC2)c2cc(F)ccc2n1CC(=O)O [Compound 3, 2-(3-(2-(Cyclopentylsulfonyl)benzyl)-5-fluoro-2-methyl-1H-indol-1-yl)acetic Acid] | high intrinsic activity | 7 nM | 0.2 nM | activity is maintained in whole blood
Cc1c(Cc2ccccc2S(=O)(=O)N2CCCC2)c2cc(F)ccc2n1CC(=O)O [Compound 5, 2-(5-Fluoro-2-methyl-3-(2-(pyrrolidin-1-ylsulfonyl)benzyl)-1H-indol-1-yl)acetic Acid] | high intrinsic activity | 5 nM |  | activity is maintained in whole blood
Cc1c(Cc2ccc(S(=O)(=O)C3CCCC3)cc2)c2cc(F)ccc2n1CC(=O)O [Compound 7, 2-(3-(4-(Cyclopentylsulfonyl)benzyl)-5-fluoro-2-methyl-1H-indol-1-yl)acetic Acid] |  | 44 nM | 5 nM | 
Cc1c(Cc2ccccc2S(=O)(=O)C2CCC2)c2cc(F)ccc2n1CC(=O)O [Compound 8, 2-(3-(2-(Cyclobutylsulfonyl)benzyl)-5-fluoro-2-methyl-1H-indol-1-yl)acetic Acid] |  | 240 nM | 3 nM | 

Now from value to compound, other results behind:

intrinsic activity (CRTH2 antagonist), in words [1] | IC50 [2] | Ki [3] | SMILES | activity in whole blood, in words [2]
high intrinsic activity | 5 nM | 0.04 nM | Cc1c(Cc2ccccc2S(=O)(=O)N2CCCCC2)c2cc(F)ccc2n1CC(=O)O [Compound 2, 2-(5-Fluoro-2-methyl-3-(2-(piperidin-1-ylsulfonyl)benzyl)-1H-indol-1-yl)acetic Acid] | activity is maintained in whole blood
 |  | 55 nM | Cc1c(Cc2cccc(S(=O)(=O)N3CCCCC3)c2)c2cc(F)ccc2n1CC(=O)O [Compound 4, 2-(5-Fluoro-2-methyl-3-(3-(piperidin-1-ylsulfonyl)benzyl)-1H-indol-1-yl)acetic Acid] | 
 | 85 nM | 2 nM | Cc1c(Cc2ccc(S(=O)(=O)C3CCCCC3)cc2)c2cc(F)ccc2n1CC(=O)O [Compound 6, 2-(3-(4-(Cyclohexylsulfonyl)benzyl)-5-fluoro-2-methyl-1H-indol-1-yl)acetic Acid] | 
 |  | 100 nM | Cc1c(Cc2cccc(S(=O)(=O)N3CCCC3)c2)c2cc(F)ccc2n1CC(=O)O [Compound 9, 2-(5-Fluoro-2-methyl-3-(3-(pyrrolidin-1-ylsulfonyl)benzyl)-1H-indol-1-yl)acetic Acid] | 
 |  | 1 nM | Cc1c(Cc2ccc(S(=O)(=O)N3CCCCC3)cc2)c2cc(F)ccc2n1CC(=O)O [Compound 10, 2-(5-Fluoro-2-methyl-3-(4-(piperidin-1-ylsulfonyl)benzyl)-1H-indol-1-yl)acetic Acid] | 
